Assay results from a compilation of properties of binary mixtures (doi:10.1021/jp308139r).

Assay: xn = mol fraction of the nth substance listed
Conditions: 101 kPa

C[NH+](C)C.O=S(=O)([N-]S(=O)(=O)C(F)(F)F)C(F)(F)F + CC1COC(=O)O1
Conditions | electrical conductivity [S/m]
264.45 K, x2 = 0.701 | 0.519
273.15 K, x2 = 0.701 | 0.687
283.15 K, x2 = 0.701 | 1
293.15 K, x2 = 0.701 | 1.34
298.15 K, x1 = 0.0002 | 0.011
298.15 K, x1 = 0.0005 | 0.022
298.15 K, x1 = 0.002 | 0.066
298.15 K, x1 = 0.0055 | 0.155
298.15 K, x2 = 0.5091 | 1.41
298.15 K, x2 = 0.5632 | 1.5
298.15 K, x2 = 0.6802 | 1.66
298.15 K, x2 = 0.843 | 1.43
303.15 K, x2 = 0.701 | 1.74
313.15 K, x2 = 0.701 | 2.16
323.15 K, x2 = 0.701 | 2.61
333.15 K, x2 = 0.701 | 3.09
343.15 K, x2 = 0.701 | 3.59
353.15 K, x2 = 0.701 | 4.1

C[S+](C)C.O=S(=O)([N-]S(=O)(=O)C(F)(F)F)C(F)(F)F + CC1COC(=O)O1
Conditions | electrical conductivity [S/m]
265.55 K, x2 = 0.76 | 0.468
276.95 K, x2 = 0.76 | 0.708
294.65 K, x2 = 0.76 | 1.18
298.15 K, x1 = 0.0001 | 0.009
298.15 K, x1 = 0.0003 | 0.023
298.15 K, x1 = 0.0053 | 0.177
298.15 K, x2 = 0.5156 | 1.07
298.15 K, x2 = 0.565 | 1.21
298.15 K, x2 = 0.6897 | 1.37
298.15 K, x2 = 0.7404 | 1.39
298.15 K, x2 = 0.8098 | 1.34
298.15 K, x2 = 0.8571 | 1.25
298.15 K, x2 = 0.9218 | 0.964
298.15 K, x2 = 0.9792 | 0.39
303.15 K, x2 = 0.76 | 1.44
313.15 K, x2 = 0.76 | 1.8
323.15 K, x2 = 0.76 | 2.16
343.15 K, x2 = 0.76 | 2.94
353.15 K, x2 = 0.76 | 3.34

C[NH+](C)C.O=S(=O)([N-]S(=O)(=O)C(F)(F)F)C(F)(F)F + CC#N
Conditions | electrical conductivity [S/m]
265.55 K, x2 = 0.86 | 4.31
273.15 K, x2 = 0.86 | 4.81
283.15 K, x2 = 0.86 | 5.49
293.15 K, x2 = 0.86 | 6.17
298.15 K, x1 = 0.0001 | 0.022
298.15 K, x1 = 0.0004 | 0.273
298.15 K, x1 = 0.0008 | 0.438
298.15 K, x1 = 0.0021 | 0.755
298.15 K, x1 = 0.0083 | 1.81
298.15 K, x2 = 0.5587 | 3.69
298.15 K, x2 = 0.6 | 4.08
298.15 K, x2 = 0.72 | 5.54
298.15 K, x2 = 0.78 | 6.28
298.15 K, x2 = 0.84 | 6.76
298.15 K, x2 = 0.8901 | 6.73
298.15 K, x2 = 0.938 | 5.86
298.15 K, x2 = 0.9677 | 4.21
313.15 K, x2 = 0.86 | 7.54
323.15 K, x2 = 0.86 | 8.22
333.15 K, x2 = 0.86 | 8.88
343.15 K, x2 = 0.86 | 9.57
353.15 K, x2 = 0.86 | 10.2

C[S+](C)C.O=S(=O)([N-]S(=O)(=O)C(F)(F)F)C(F)(F)F + CC#N
Conditions | electrical conductivity [S/m]
283.15 K, x2 = 0.87 | 4.66
293.45 K, x2 = 0.87 | 5.28
298.15 K, x1 = 0.0001 | 0.043
298.15 K, x1 = 0.0002 | 0.103
298.15 K, x1 = 0.0003 | 0.148
298.15 K, x1 = 0.0033 | 0.839
298.15 K, x1 = 0.0129 | 2.17
298.15 K, x2 = 0.4883 | 2
298.15 K, x2 = 0.56 | 2.74
298.15 K, x2 = 0.64 | 3.56
298.15 K, x2 = 0.72 | 4.44
298.15 K, x2 = 0.8 | 5.35
298.15 K, x2 = 0.86 | 5.74
298.15 K, x2 = 0.9497 | 4.59
303.25 K, x2 = 0.87 | 5.88
313.15 K, x2 = 0.87 | 6.45
333.15 K, x2 = 0.87 | 7.48
343.15 K, x2 = 0.87 | 8.05
353.15 K, x2 = 0.87 | 8.67

O=C1CCCO1 + C[NH+](C)C.O=S(=O)([N-]S(=O)(=O)C(F)(F)F)C(F)(F)F
x1 = 1
Conditions | viscosity [mPa·s]
298.15 K | 1.74
303.15 K | 1.61
313.15 K | 1.39
323.15 K | 1.22
343.15 K | 0.96

C[NH+](C)C.O=S(=O)([N-]S(=O)(=O)C(F)(F)F)C(F)(F)F + O=C1CCCO1
Conditions | electrical conductivity [S/m] | viscosity [mPa·s]
263.15 K, x2 = 0.74 | 0.948 | –
273.15 K, x2 = 0.74 | 1.19 | –
283.15 K, x2 = 0.74 | 1.61 | –
293.15 K, x2 = 0.74 | 2.01 | –
298.15 K, x1 = 0.0001 | 0.005 | –
298.15 K, x1 = 0.0003 | 0.027 | –
298.15 K, x1 = 0.0046 | 0.214 | –
298.15 K, x1 = 0.0188 | 0.613 | –
298.15 K, x2 = 0.5778 | 2.09 | –
298.15 K, x2 = 0.5976 | – | 6.89
298.15 K, x2 = 0.639 | 2.26 | –
298.15 K, x2 = 0.672 | – | 5.66
298.15 K, x2 = 0.6802 | 2.35 | –
298.15 K, x2 = 0.7426 | 2.44 | –
298.15 K, x2 = 0.7428 | – | 4.51
298.15 K, x2 = 0.8047 | 2.36 | –
298.15 K, x2 = 0.8088 | – | 3.5
298.15 K, x2 = 0.8692 | 2.06 | –
298.15 K, x2 = 0.8803 | – | 2.64
298.15 K, x2 = 0.9328 | 1.44 | –
303.15 K, x2 = 0.5976 | – | 5.87
303.15 K, x2 = 0.672 | – | 4.85
303.15 K, x2 = 0.74 | 2.49 | –
303.15 K, x2 = 0.7428 | – | 3.91
313.15 K, x2 = 0.5976 | – | 4.35
313.15 K, x2 = 0.74 | 2.97 | –
313.15 K, x2 = 0.7428 | – | 3.01
313.15 K, x2 = 0.8088 | – | 2.35
323.15 K, x2 = 0.5976 | – | 3.39
323.15 K, x2 = 0.672 | – | 2.84
323.15 K, x2 = 0.74 | 3.47 | –
323.15 K, x2 = 0.7428 | – | 2.29
323.15 K, x2 = 0.8088 | – | 1.91
323.15 K, x2 = 0.8803 | – | 1.49
333.15 K, x2 = 0.5976 | – | 2.74
333.15 K, x2 = 0.672 | – | 2.34
333.15 K, x2 = 0.8088 | – | 1.48
333.15 K, x2 = 0.8803 | – | 1.2
335.15 K, x2 = 0.74 | 4.11 | –
343.15 K, x2 = 0.5976 | – | 2.22
343.15 K, x2 = 0.672 | – | 1.9
343.15 K, x2 = 0.7428 | – | 1.45
343.15 K, x2 = 0.8088 | – | 1.17
343.45 K, x2 = 0.74 | 4.56 | –
353.15 K, x2 = 0.74 | 5.09 | –

C[S+](C)C.O=S(=O)([N-]S(=O)(=O)C(F)(F)F)C(F)(F)F + O=C1CCCO1
Conditions | electrical conductivity [S/m]
264.75 K, x2 = 0.8 | 0.887
273.15 K, x2 = 0.8 | 1.11
283.85 K, x2 = 0.8 | 1.43
293.15 K, x2 = 0.8 | 1.75
298.15 K, x1 = 0.0001 | 0.011
298.15 K, x1 = 0.0002 | 0.015
298.15 K, x1 = 0.0003 | 0.025
298.15 K, x1 = 0.0005 | 0.038
298.15 K, x1 = 0.0008 | 0.052
298.15 K, x1 = 0.0047 | 0.226
298.15 K, x1 = 0.0187 | 0.583
298.15 K, x2 = 0.5398 | 1.35
298.15 K, x2 = 0.5798 | 1.49
298.15 K, x2 = 0.66 | 1.74
298.15 K, x2 = 0.72 | 1.9
298.15 K, x2 = 0.8 | 2.01
298.15 K, x2 = 0.8695 | 1.89
303.15 K, x2 = 0.8 | 2.11
313.15 K, x2 = 0.8 | 2.5
323.15 K, x2 = 0.8 | 2.9
333.15 K, x2 = 0.8 | 3.32
343.15 K, x2 = 0.8 | 3.74
353.15 K, x2 = 0.8 | 4.17
